The values that follow are results of earlier work, collected in patent US5668151A, “Dihydropyridine NPY antagonists: piperidine derivatives” (Bristol-Myers Squibb Company, priority 1996, dated 1997).

Data set [1] concerns NPY-induced Ca++ entry in HEL cells.

Each structure is given as a SMILES string.

For the compound `N=C(N)N(CCCCCCNCc1ccc2ccccc2c1)CCCCCCN(CCCCCCNCc1ccc2ccccc2c1)C(=N)N` [Example 6b], the “effect on the vasoconstrictive activity of the NPY1 agonist [Leu31, Pro34]NPY” value in the data set on rat femoral artery is given as “no effect”. The “effect on the NPY2 agonist NPY13-36” value with rat femoral artery (Y2 receptor functional selectivity) is on record as “antagonized”.

In general, pA2 refers to the negative logarithm of the molar antagonist concentration that doubles the agonist concentration needed for the same response. Consider `N=C(NCCCc1cnc[nH]1)NCCC(c1cc(F)cc(F)c1)c1ccccn1` (stereo not drawn) [He 90481], for which the pA2 in data set [1] is reported as 4.43.
